Values of other authors in PMC3819144 (Biochemical pharmacology, 2013).

Tests used:
[1] = tested on: CXCR7
[2] = tested on: CXCR7; details: requires relatively high concentrations

effect on binding of CXCL12 to CXCR7 [2]: enhance binding of CXCL12 to CXCR7
SMILES: c1cc(CN2CCCNCCNCCCNCC2)ccc1CN1CCCNCCNCCCNCC1 [AMD3100]
CXCR7 signaling through β-arrestin 2 / recruitment of β-arrestin 2 [1]: modestly activate CXCR7 signaling through β-arrestin 2
